In ChEMBL document CHEMBL5506048, “Modular Biomimetic Strategy Enables Discovery and SAR Exploration of Oxime Macrocycles as Influenza A Virus (H1N1) Inhibitors” (J Med Chem, 2024):
Activity calls are given as the source filed them. No cut-off for these calls is given here.

Legend:
[1] = Selectivity index, ratio of CC50 for human Calu-3 cells to EC50 for antiviral activity against Influenza virus HINI A/Puerto Rico/8/34 (A/PR/8/34); type: toxicity; conditions: read-out: Selectivity Index
Influenza A virus [2] = test: Antiviral activity against Influenza virus H1N1 A/Puerto Rico/8/34 (A/PR/8/34) infected in human Calu-3 cells assessed as viral RNA measured after 3 days by one-time real time PCR assay; type: functional, organism-based
Calu-3 = test: Cytotoxicity against human Calu-3 cells assessed as cell viability measured after 3 days by CellTiter-Lumi Steady Plus Luminescent Cell Viability Assay Kit; type: functional; conditions: Calu-3, 72 h, time 3 day
Influenza A virus [3] = test: Antiviral activity against Influenza virus H1N1 A/Puerto Rico/8/34 (A/PR/8/34) infected in human Calu-3 cells assessed as viral RNA at CC50 concentration for human Calu-3 cells measured after 3 days by one-time real time PCR assay; type: functional, organism-based; conditions: time 3.0 day
Influenza A virus [4] = test: Antiviral activity against Influenza virus H3N2 (A/Hong Kong/8/68) infected in human Calu-3 cells assessed as viral RNA measured after 3 days by one-time real time PCR assay; type: functional, organism-based; conditions: Calu-3, 72 h
Influenza B virus = test: Antiviral activity against Influenza virus Flu B (B/Taiwan/2/62) infected in human Calu-3 cells assessed as viral RNA measured after 3 days by one-time real time PCR assay; type: functional, organism-based; conditions: B/Taiwan/2/62, Calu-3, 72 h
Influenza A virus [5] = test: Antiviral activity against HIV pseudotyped H5N1 HA infected in human 293T cells assessed as inhibition of viral entry into cells by measuring intensity of chemiluminescence measured after 3 days by Bright-Glo luciferase assay; type: functional, organism-based; conditions: HEK293T, time 3.0 day
Ebolavirus = test: Antiviral activity against HIV pseudotyped EBOV GP infected in human 293T cells assessed as inhibition of viral entry into cells by measuring intensity of chemiluminescence measured after 3 days by Bright-Glo luciferase assay; type: functional, organism-based; conditions: HEK293T, time 3.0 day
Influenza A virus [6] = test: Antiviral activity against HIV pseudotyped H1N1 HA infected in human 293T cells assessed as inhibition of viral entry into cells by measuring intensity of chemiluminescence measured after 3 days by Bright-Glo luciferase assay; type: functional, organism-based; conditions: HEK293T, time 3.0 day
Influenza A virus [7] = test: Antiviral activity against Influenza virus HIN1 (A/California/07/2009 pdm09) infected in human Calu-3 cells assessed as viral RNA measured after 3 days by one-time real time PCR assay; type: functional, organism-based; conditions: Calu-3, 72 h

SMILES	selectivity ratio [1]	EC50 (Influenza A virus [2]; Calu-3, 72 h) [µM]	EC90 (Influenza A virus [2]; Calu-3, 72 h, time 3 day) [µM]	CC50 (Calu-3) [µM]	Activity (Influenza A virus [3])	further results
C=C1Cc2cc(C(F)(F)F)ccc2C(=O)NCC(C)(C)/C(=N/OC)CCCNC1=O	> 152	0.657	1.39	> 100	–	–
C=C1Cc2cc(C(F)(F)F)ccc2C(=O)NCC(C)(C)/C(=N/OCC23C[C@H]4C[C@@H](C2)C[C@@H](C3)C4)CCC(C)OC1=O (stereo partly specified)	–	–	–	47	inactive	–
C=C1Cc2cc(F)ccc2C(=O)NCC(C)(C)/C(=N/OC)CCCOC1=O	> 60	1.65	1.98	> 100	–	–
C=C1Cc2cc(C(F)(F)F)ccc2C(=O)NCC(C)(C)/C(=N/OC)CCCCCCOC1=O	–	–	–	15.6	inactive	–
C=C1Cc2cc(C(F)(F)F)ccc2C(=O)NCC(C)(C)/C(=N/OC)CCCCCOC1=O	–	–	–	40.7	inactive	–
C=C1Cc2cc(C(F)(F)F)ccc2C(=O)NCC(C)(C)/C(=N/OC(CC)CC)CCC(C)OC1=O (stereo unspecified)	–	–	–	31.9	inactive	–
C=C1Cc2cc(NC(C)=O)ccc2C(=O)NCC(C)(C)/C(=N/OC)CCCOC1=O	> 37	2.69	5.06	> 100	–	–
C=C1Cc2cc(OC)ccc2C(=O)NCC(C)(C)/C(=N/OC)CCCOC1=O	> 95	1.05	3.55	> 100	–	–
C=C1Cc2cc(C(F)(F)F)ccc2C(=O)NCC(C)(C)/C(=N/OC)CCC(CN2CCOCC2)OC1=O (stereo unspecified)	–	–	–	> 100	inactive	–
C=C1Cc2cc(N3CCOCC3)ccc2C(=O)NCC(C)(C)/C(=N/OC)CCCOC1=O	> 8	17.9	–	> 100	–	EC90 (Influenza A virus [2]; time 3.0 day): inactive
C=C1Cc2ccccc2C(=O)NCC(C)(C)/C(=N/OC)CCCOC1=O	> 101	0.985	18.3	> 100	–	–
CCC(CC)Oc1ccc(/C=C2\Cc3cc(C(F)(F)F)ccc3C(=O)NCC(C)(C)/C(=N/OC)CCCCOC2=O)cc1	–	–	–	> 100	inactive	–
C=C1Cc2cc(C(F)(F)F)ccc2C(=O)NCC(C)(C)/C(=N/OCC(F)(F)F)CCCOC1=O	> 233	0.428	1.87	> 100	–	–
C=C1Cc2ccc(C(F)(F)F)cc2C(=O)NCC(C)(C)/C(=N/OC)CCCOC1=O	278	0.264	1.05	73.6	–	–
C=C1Cc2cc(C(F)(F)F)ccc2C(=O)NCC(C)(C)/C(=N/OC)CCCCOC1=O	> 43	2.3	46.5	> 100	–	–
C=C1Cc2cc(C(F)(F)F)ccc2C(=O)NCC(C)(C)/C(=N/OC)CCOC1=O	–	–	–	> 100	inactive	–
C=C1Cc2cc(C(F)(F)F)ccc2C(=O)NCC(C)(C)/C(=N/OC)CCC(C2CC2)OC1=O (stereo unspecified)	–	–	–	42.9	inactive	–
CO/N=C1\CCCCOC(=O)/C(=C/c2ccc(N3CCOCC3)cc2)Cc2cc(C(F)(F)F)ccc2C(=O)NCC1(C)C	–	–	–	> 100	inactive	–
CO/N=C1\CCCCOC(=O)/C(=C/c2ccc(F)cc2)Cc2cc(C(F)(F)F)ccc2C(=O)NCC1(C)C	–	–	–	> 100	inactive	–

SMILES	selectivity ratio [1]	EC50 (Influenza A virus [2]; Calu-3, 72 h) [µM]	EC90 (Influenza A virus [2]; Calu-3, 72 h, time 3 day) [µM]	CC50 (Calu-3) [µM]	Activity (Influenza A virus [3])	further results
CO/N=C1\CCCCOC(=O)C(CSCCC(=O)O)Cc2cc(C(F)(F)F)ccc2C(=O)NCC1(C)C (stereo unspecified)	–	–	–	> 100	inactive	–
C=C1Cc2cc(C(F)(F)F)ccc2C(=O)NCC(C)/C(=N/OC)CCCOC1=O (stereo unspecified)	–	–	–	> 100	inactive	–
C=C1Cc2cc(C(F)(F)F)ccc2C(=O)NCC(C)(C)/C(=N/OC)CC[C@@H](C)OC1=O	18	1.47	> 100	26.5	–	–
C=C(Cc1cc(C(F)(F)F)ccc1C(=O)NCC(C)(C)/C(CCCO)=N/OC)C(=O)O	–	–	–	> 100	inactive	–
C=C1Cc2cc(C(F)(F)F)ccc2C(=O)NCC(C)(C)/C(=N/OC)CC[C@H](C)OC1=O	6950	0.013	0.235	90.4	–	EC50 (Influenza A virus [4]): > 50 µM; EC50 (Influenza B virus): > 50 µM; Activity (Influenza A virus [5]): inactive; Activity (Ebolavirus): inactive; Activity (Influenza A virus [6]): Dose-Dependent Effect; EC50 (Influenza A virus [7]): 0.048 µM
C=C1Cc2cc(C(F)(F)F)ccc2C(=O)NCC(C)(C)/C(=N/OC(C)C)CCC(C)OC1=O (stereo unspecified)	–	–	–	36.6	inactive	–
C=C1Cc2cc(C(F)(F)F)ccc2C(=O)NCC(C)(C)/C(=N/O)CCCCOC1=O	> 1.7	57.3	–	> 100	–	EC90 (Influenza A virus [2]; time 3.0 day): inactive
CO/N=C1\CCCOC(=O)C(C)Cc2cc(C(F)(F)F)ccc2C(=O)NCC1(C)C (stereo unspecified)	> 36	2.74	> 100	> 100	–	–
C=C1Cc2cc(C(F)(F)F)ccc2C(=O)NCC(C)(C)/C(=N/OC)CCC(CC)OC1=O (stereo unspecified)	–	–	–	42.4	inactive	–
C=C1Cc2cc(C(F)(F)F)ccc2C(=O)NCC(C)(C)/C(=N/OC)CCC(CO)OC1=O (stereo unspecified)	> 4	20.2	> 100	> 100	–	–
C=C1Cc2cc(C(F)(F)F)ccc2C(=O)NCC(C)(C)C(=O)CCCCOC1=O	–	–	–	> 100	inactive	–
C=C1Cc2cc(C(F)(F)F)ccc2C(=O)NCC(C)(C)/C(=N/OC)CCC(C(=O)O)OC1=O (stereo unspecified)	–	–	–	> 100	inactive	–
C=C1Cc2cc(C(F)(F)F)ccc2C(=O)NCC(C)(C)/C(=N/OC)CCC(c2ccc(F)cc2)OC1=O (stereo unspecified)	–	–	–	27.3	inactive	–
C=C1Cc2cc(C(F)(F)F)ccc2C(=O)NCC(C)(C)/C(=N/OC)CCC(CNCCO)OC1=O (stereo unspecified)	–	–	–	> 100	inactive	–
C=C1Cc2cc(C(F)(F)F)ccc2C(=O)NCC(C)(C)/C(=N/OC)CCC(C)OC1=O (stereo unspecified)	> 1040	0.096	0.823	> 100	–	–
C=C1Cc2cc(C(F)(F)F)ccc2C(=O)NCC2(CC2)/C(=N/OC)CCCOC1=O	> 404	0.247	1.23	> 100	–	–
C=C1Cc2cc(C(F)(F)F)ccc2C(=O)NCC(C)(C)/C(=N/OC)CCCOC1=O	> 226	0.441	0.56	> 100	–	–
C=C1Cc2cc(C(F)(F)F)ccc2C(=O)NCC2(CCC2)/C(=N/OC)CC[C@H](C)OC1=O	305	0.22	0.68	67.3	–	–
